Patent US20250197905A1, “LEGIONAMINIC ACID GLYCOSYLTRANSFERASES FOR CHEMOENZYMATIC SYNTHESIS OF GLYCANS AND GLYCOCONJUGATES” (The Regents of the University of California, priority 2022, published 2025)

Experiments:
His6-AbGtr18 = assay: Effects of metal ions, EDTA, and DTT on the activity of His6-AbGtr18; assay type: biochemical, A. baumannii K8; conditions: donor CMP-Leg5,7Ac2; for Effect on the activity of AbGtr18: 10 mM additive, 40° C., 30 minutes, pH 6.0
Procedure: Effects of metal ions, EDTA, and a reducing reagent DTT on the activity of His6-AbGtr18. Enzymatic assays were carried out in duplicate at 40° C. for 30 minutes in a total volume of 10 μL in citric acid-sodium citrate buffer ([…], pH 6.0) containing 1 mM CMP-Leg5,7Ac2, 1 mM GalNAcα2AA, His6-AbGtr18 (0.64 μM), and 10 mM of CaCl2), CuSO4, MgCl2, MnCl2, NiSO4, ZnCl2, ethylenediaminetetraacetic acid (EDTA), or dithiothreitol (DTT). Reactions without metal ions, EDTA, or DTT were used as controls. The reactions were quenched by adding 40 μL methanol. Samples were centrifuged, and then analyzed by UHPLC as described above for pH profile studies.

[1] = tested on: LpCLS or NmCSS, with or without PmAldolase; assay type: biochemical
MBP-AbGtr18-His6 = assay type: biochemical, A. baumannii K8

Row | Structure (SMILES) | Effect on the activity of AbGtr18 (His6-AbGtr18) | CMP-Sia Yield (%) [1] [%] | Sialoside yield (%) 0.5 h (MBP-AbGtr18-His6) [%] | Sialoside yield (%) 20 h (MBP-AbGtr18-His6) [%] | other results
1 | [Cl-].[Cl-].[Zn+2] [Zn^2+, ZnCl2] | almost abolished its activity completely | – | – | – | –
2 | [Ca+2].[Cl-].[Cl-] [Ca^2+, CaCl2] | no significant effect | – | – | – | –
3 | [Cl-].[Cl-].[Mg+2] [Mg^2+, MgCl2] | no significant effect | – | – | – | Effect of increasing Mg^2+ concentration on the activity of His6-AbGtr18 (His6-AbGtr18; up to 50 mM): decrease the activity
4 | [Cl][Mn][Cl] [Mn^2+, MnCl2] | almost abolished its activity completely | – | – | – | –
5 | CC(=O)N[C@H]1[C@H]([C@@H](O)[C@@H](O)CO)O[C@@](O)(C(=O)O)C[C@@H]1O [Neu5Ac] | – | >99 | 47.4 ± 1.7 | 93.3 ± 0.6 | Suitability as donor substrate for MBP-AbGtr18-His6 (in words) (MBP-AbGtr18-His6): efficient
6 | O=C(O)CN(CCN(CC(=O)O)CC(=O)O)CC(=O)O [EDTA, ethylenediaminetetraacetic acid] | no effect | – | – | – | –
7 | C[C@@H](O)[C@@H](N=[N+]=[N-])[C@@H]1OC(O)(C(=O)O)C[C@H](O)[C@H]1N=[N+]=[N-] (stereo partly drawn) [Leg5,7diN3] | – | >99 | 44.3 ± 1.6 | 68.4 ± 1.5 | Suitability as donor substrate for MBP-AbGtr18-His6 (in words) (MBP-AbGtr18-His6): suitable but less efficient donor substrates
8 | CC(=O)N[C@@H]1C(O)O[C@H](CN=[N+]=[N-])[C@@H](O)[C@@H]1O (stereo partly drawn) [ManNAc6N3] | – | >99 | 55.5 ± 0.6 | 96.0 ± 2.1 | –
9 | CC(=O)N[C@H]1[C@@H](O)[C@H](O)[C@@H](CO)O[C@@H]1O [ManNAc] | – | >99 | 37.6 ± 0.4 | 71.1 ± 0.4 | –
10 | O[C@H](CS)[C@H](O)CS (racemic) [DTT, dithiothreitol] | no significant effect | – | – | – | –
11 | [N-]=[N+]=NCC(=O)NC1C(O)OC(CO)C(O)C1O (stereo not drawn) [ManNAz] | – | >99 | 57.3 ± 0.4 | 98.4 ± 1.8 | –
12 | O=C[C@@H](O)[C@@H](O)[C@H](O)[C@H](O)CO [Mannose] | – | 77.7 ± 1.6 | – | 5.0 ± 0.3 | –
13 | O=S(=O)([O-])[O-].[Cu+2] [Cu^2+, CuSO4] | decreased the reaction yields | – | – | – | –
